Experimental data published in US20110038920A1, “WOUND HEALING COMPOSITIONS AND TREATMENTS” (priority 2008, published 2011).
Counter-ions that a name gives are not always drawn.

Assays:
[1] = system: OPN expression in Swiss 3T3 fibroblasts exposed to macrophage CM; assay: Macrophage-CM induction of OPN in fibroblasts with inhibitors (Western blot); format: cell-based; conditions: co-treatment; Gleevec 2-20 μM, PDGF-Rβ nAb 2 μg/ml, wortmannin 100 nM
Method: (§1) Protein samples (20 μg; collected in T-PER® Reagent; PIERCE Biotechnology) were separated on Tris-Glycine Gels (Invitrogen), transferred to PVDF, and blotted according to standard protocols (antibody details are provided above).
(§2) Swiss 3T3, J774.1 macrophages, and RBL mast cells were cultured in DMEM+10% fetal calf serum. Primary neutrophils were harvested by peritoneal lavage 4 h post-thioglycollate-induced peritonitis, and primary macrophages were derived from mouse bone marrow and activated with LPS (500 ng/ml).

[2] = system: pulmonary and dermal fibrosis; conditions: Distler et al. 2007; Aono et al. 2005; cited from earlier work
[3] = system: OPN expression in Swiss 3T3 fibroblasts; assay: Induction of OPN expression in fibroblasts by growth factors/cytokines (Western blot); format: cell-based; conditions: for ability to upregulate OPN expression in Swiss 3T3s: 8 h, PDGF-BB 20, EGF 100, TGFβ1 10, TGFβ3 10, IL-6 50, TNFα 10 ng/ml
Method: as §1, §2

Mouse OPN mRNA = assay: AS ODN cleavage of OPN mRNA in vitro (RNase H); format: biochemical; conditions: ODN final concentration 2 μM, 20 min at 37° C., compared among the AS ODNs
Method: Dz cleavage of OPN mRNA in vitro: Mouse OPN mRNA was transcribed from the IMAGE clone (GenBank, BC057858; (Geneservice Ltd), and resulting RNA was purified with RNeasy MinElute Cleanup Kit (Qiagen). RNA (0.3 μg/5 μl) was incubated in the cleavage buffer (10 mM MgCl2, 5 mM Tris (pH 7.5), 150 mM NaCl) for 5 min at 37° C., as was 5 μl of Dzs (40 μM; MWG Biotech). These were then combined and incubated for 1 h. RNA products were separated on 2% formaldehyde-agarose gel and stained with SYBR Gold nucleic acid gel stain (Invitrogen) to determine cleaving efficiency (FIG. 6 A).
AS ODN cleavage in vitro: To evaluate the cleaving efficiency of the AS ODNs, transcribed RNA (0.3 μg) was incubated with control or OPN AS ODNs (final concentration of 2 μM; MWG Biotech), RNase H (Invitrogen. Corp.), and RNasin (to inhibit non-specific RNA degradation; Promega) in a final volume 10 μl of cleavage buffer, and incubated for 20 min at 37° C. RNA products were separated on 2% formaldehyde-agarose gel and stained with SYBR Gold nucleic acid gel stain (Invitrogen Corp.) to determine cleaving efficiency (FIG. 6 B).

chronic ulcers = conditions: cited from earlier work

In the case of `Cc1ccc(NC(=O)c2ccc(CN3CCN(C)CC3)cc2)cc1Nc1nccc(-c2cccnc2)n1` [Gleevec, imatinib mesylate], the “OPN expression during fibroblast exposure to macrophage CM” value [1] is listed as “significantly reduced” and the “pulmonary and dermal fibrosis” value [2] is listed as “reduces pulmonary and dermal fibrosis”.

In the case of “EGF: growth factor, R&D Systems (NSDSECPLSHDGYCLHDGVCMYIEALDKYACNCVVGYIGERCQYRDLKWWELR; Epidermal growth factor; UniProt P01133 971-1023, looked up)”, the “ability to upregulate OPN expression in Swiss 3T3s” value (shortened to “ability”) [3] is reported as “not”.

With IL-6: cytokine, BioSource the “ability” value [3] was “not”.

For “OPN AS ODN (943): osteopontin antisense oligodeoxynucleotide actatcgatcacatccg (SEQ.ID.NO: 164) (antisense ACTATCGATCACATCCG; DNA, backbone not given here)”, the “effectiveness at cleaving OPN mRNA” value (Mouse OPN mRNA) was “most effective”.

For PDGF-BB: growth factor, R&D Systems, the “ability” value [3] was “significantly upregulate”, the “time of peak OPN levels after initial exposure” value ([3]; Swiss 3T3 fibroblasts, 20 ng/ml PDGF-BB) was “about 8 h” and the “minimum window of exposure required for OPN expression” value ([3]; Swiss 3T3 fibroblasts, 20 ng/ml PDGF-BB, analysed at 8 h) was no less than 2 h. For the same compound, the “granulation tissue and scarring” value (chronic ulcers; in vivo) was “increased granulation tissue and scarring” and the “healing of chronic ulcers” value (chronic ulcers; topical application to wounds (Chan et al. 2006)) was “accelerate the healing”.

For “TGFβ1: growth factor/cytokine, BioVision”, the “ability” value [3] was “not”.
